Columns and labels:
[1] = test system: HeLa; assay: Compound was tested for stimulation of the incorporation of 32Pi into phospholipids of HeLa cells at 10E-6 M concentration; format: functional, Homo sapiens
[2] = test system: HeLa; assay: Compound was tested for stimulation of the incorporation of 32Pi into phospholipids of HeLa cells at 10E-5 M concentration; format: functional, Homo sapiens
[3] = test system: HeLa; assay: Compound was tested for stimulation of the incorporation of 32Pi into phospholipids of HeLa cells at 10E-7 M concentration; format: functional, Homo sapiens
[4] = species: Mus musculus; assay: In vitro binding affinity towards TPA receptor in mouse epidermal particulate fraction using [3H]TPA as radioligand
[5] = test system: HeLa; assay: Compound was tested for stimulation of the incorporation of 32Pi into phospholipids of HeLa cells at 10E-4 M concentration; format: functional, Homo sapiens
[6] = test system: HeLa; assay: Compound was tested for stimulation of the incorporation of 32Pi into phospholipids of HeLa cells at 10E-8 M concentration; format: functional, Homo sapiens

| pID50 [4] | SMILES | Relativity [1] | Relativity [2] | Relativity [3] | Relativity [5] | Relativity [6] |
| --- | --- | --- | --- | --- | --- | --- |
| 4.41 | CC(C)[C@H]1C(=O)N[C@H](CO)Cc2c[nH]c3ccc(F)c(c23)N1C | 1.28 c.p.m. mg-1 | 3.57 c.p.m. mg-1 | 1.29 c.p.m. mg-1 | 5.32 c.p.m. mg-1 |  |
| 5.85 | CC(C)[C@H]1C(=O)N[C@H](CO)Cc2c[nH]c3cc(F)cc(c23)N1C | 7.43 c.p.m. mg-1 | 6.87 c.p.m. mg-1 | 1.78 c.p.m. mg-1 |  | 1.18 c.p.m. mg-1 |

| SMILES | pID50 [4] | Relativity [1] | Relativity [2] | Relativity [3] | Relativity [5] | Relativity [6] |
| --- | --- | --- | --- | --- | --- | --- |
| CC(C)[C@H]1C(=O)N[C@H](CO)Cc2c[nH]c3cccc(c23)N1C [INDOLACTUM] | 5.97 | 4.69 c.p.m. mg-1 | 7.82 c.p.m. mg-1 | 1.36 c.p.m. mg-1 |  | 1.04 c.p.m. mg-1 |

Reference: ChEMBL document CHEMBL1127236, “Synthesis and biological activities of fluorine-substituted ()-indolactam-V, the core structure of tumor promoter teleocidins” (1994)
